tested on: STC-1 (intestinal endocrine cell line); test: CCK release from STC-1 intestinal endocrine cell line; assay type: cell-based; conditions: compared with a partial hydrolysate (Gentlease) or free amino acids

Row | Substance | CCK release from STC-1 cells
1 | ALPMHIR [specific peptide from a casein hydrolysate of the present disclosure] | may stimulate CCK release
2 | DISLLDAQSAPLR [specific peptide from a casein hydrolysate of the present disclosure] | may stimulate CCK release
3 | GPVRGPFP [specific peptide from a casein hydrolysate of the present disclosure] | may stimulate CCK release
